Assay results taken from article PMC11089504 (Journal of medicinal chemistry, 2024).
“And” between values parts separate entries of the source, which are not always exact repeats. Equal values may be shown once.

What was measured:
human CYP51 = settings: cited from earlier work
T. cruzi CYP51 = settings: 2-fold molar excess over the enzyme ref 61; cited from earlier work
A. castellanii CYP51 [1] = target: T1, A. castellanii CYP51 (Acanthamoeba castellanii, UniProt L8GJB3, V2A); settings: full-length enzyme, type I spectral response
T1 sequence (L8GJB3 1-486 V2A): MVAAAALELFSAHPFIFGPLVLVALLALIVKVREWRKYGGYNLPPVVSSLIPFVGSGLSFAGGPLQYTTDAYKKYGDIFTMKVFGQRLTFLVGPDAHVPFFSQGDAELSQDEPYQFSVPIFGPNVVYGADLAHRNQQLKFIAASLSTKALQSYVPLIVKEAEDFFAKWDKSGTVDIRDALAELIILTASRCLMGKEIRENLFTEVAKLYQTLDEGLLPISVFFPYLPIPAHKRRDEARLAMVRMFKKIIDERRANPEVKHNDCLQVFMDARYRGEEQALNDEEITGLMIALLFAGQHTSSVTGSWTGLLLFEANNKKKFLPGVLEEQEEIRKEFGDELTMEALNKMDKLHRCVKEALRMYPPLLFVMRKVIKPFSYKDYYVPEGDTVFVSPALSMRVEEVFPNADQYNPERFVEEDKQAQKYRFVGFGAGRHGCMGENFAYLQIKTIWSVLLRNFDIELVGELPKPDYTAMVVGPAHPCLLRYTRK
T1 sequence (P00388 2-678 partner): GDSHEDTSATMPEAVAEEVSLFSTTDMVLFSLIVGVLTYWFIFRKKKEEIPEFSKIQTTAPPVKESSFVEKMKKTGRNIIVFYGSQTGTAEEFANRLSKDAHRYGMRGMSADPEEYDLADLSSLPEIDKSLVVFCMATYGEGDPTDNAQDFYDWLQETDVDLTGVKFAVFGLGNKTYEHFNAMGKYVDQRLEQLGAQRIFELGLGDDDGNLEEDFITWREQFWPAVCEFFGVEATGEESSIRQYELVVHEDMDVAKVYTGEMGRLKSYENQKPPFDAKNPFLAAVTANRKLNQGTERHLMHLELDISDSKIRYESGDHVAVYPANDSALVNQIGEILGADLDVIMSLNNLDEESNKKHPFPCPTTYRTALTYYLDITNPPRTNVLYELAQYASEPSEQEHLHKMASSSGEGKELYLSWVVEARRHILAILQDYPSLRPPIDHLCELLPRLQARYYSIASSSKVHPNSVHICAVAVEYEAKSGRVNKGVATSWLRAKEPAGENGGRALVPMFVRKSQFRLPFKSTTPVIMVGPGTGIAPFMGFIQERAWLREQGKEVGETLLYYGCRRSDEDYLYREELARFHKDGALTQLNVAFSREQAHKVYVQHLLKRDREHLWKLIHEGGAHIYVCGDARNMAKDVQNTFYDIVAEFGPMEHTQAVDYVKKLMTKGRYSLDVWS

A. castellanii CYP51 [2] = target: T1, A. castellanii CYP51; settings: obtusifoliol over lanosterol

SMILES: O[C@@](Cn1cnnn1)(c1ccc(F)cc1F)C(F)(F)c1ccc(-c2ccc(OCC(F)(F)F)cc2)cn1 [VT1161, (R)-2-(2,4-difluorophenyl)-1,1-difluoro-3-(lH-tetrazol-1-yl)-1-(5-(4-(2,2,2-trifluoroethoxy)phenyl)pyridin-2-yl)propan-2-ol]
- binding to human CYP51 (human CYP51): does not bind
- inhibition of T. cruzi CYP51 (T. cruzi CYP51): ~ 95%

SMILES: CC(C)=CCC[C@@H](C)[C@H]1CC[C@@]2(C)C3=C(CC[C@]12C)[C@@]1(C)CC[C@H](O)C(C)(C)[C@@H]1CC3 [lanosterol]
- low- to high-spin transition in the heme iron (A. castellanii CYP51 [1]): ~15%

SMILES: C=C(CC[C@@H](C)[C@H]1CC[C@@]2(C)C3=C(CC[C@]12C)[C@@]1(C)CC[C@H](O)[C@@H](C)[C@@H]1CC3)C(C)C [obtusifoliol]
- fold higher catalytic efficiency than for lanosterol (substrate preference) (A. castellanii CYP51 [2]): ~ 100 fold and 100 fold
- low- to high-spin transition in the heme iron (A. castellanii CYP51 [1]): ~ 60%
